# Data published in patent US7399763B2, “8-hydroxy-1-oxo-tetrahydropyrrolopyrazine compounds useful as HIV integrase inhibitors” (Merck & Co., Inc., priority 2002, dated 2008).
# Test system: HIV
# Test: Assay for inhibition of HIV replication (acute HIV infection of T-lymphoid cells)
# Format: cell-based
# Conditions: Human immunodeficiency virus 1, per Vacca et al. 1994
# Description: Assay for Inhibition of HIV Replication
# Assays for the inhibition of acute HIV infection of T-lymphoid cells were conducted in accordance with Vacca, J. P. et al., Proc. Natl. Acad. Sci. USA 1994, 91: 4096.
smiles,measurement,value
"CN1CCn2cc(C(=O)NCc3ccc(F)cc3)c(O)c2C1=O [Example 10, N-(4-Fluorobenzyl)-8-hydroxy-2-methyl-1-oxo-1,2,3,4-tetrahydropyrrolo[1,2-α]pyrazine-7-carboxamide]",IC95,≤ 20 µM
"CCOC(=O)c1cn2c(c1O)C(=O)N(Cc1ccccc1)CC2 [Example 1, Ethyl 2-benzyl-8-hydroxy-1-oxo-1,2,3,4-tetrahydropyrrolo[1,2-α]pyrazine-7-carboxylate]",IC95,≤ 20 µM
"CCOC(=O)c1cn2c(c1O)C(=O)N(Cc1cccc(Cl)c1)CC2 [Example 8, Ethyl 2(3-chlorobenzyl)-8-hydroxy-1-oxo-1,2,3,4-tetrahydropyrrolo[1,2-α]pyrazine-7-carboxylate]",IC95,≤ 20 µM
"CNC(=O)c1cn2c(c1O)C(=O)N(Cc1ccc(F)cc1)CC2 [Example 5, 2-(4-Fluorobenzyl)-8-hydroxy-N-methyl-1-oxo-1,2,3,4-tetrahydropyrrolo[1,2α]pyrazine-7-carboxamide]",IC95,≤ 20 µM
"CNC(=O)c1cn2c(c1O)C(=O)N(Cc1ccc(F)c(F)c1)CC2 [Example 17, 2-(3,4-Difluorobenzyl)-8-hydroxy-N-methyl-1-oxo-1,2,3,4-tetrahydropyrrolo[1,2-α]pyrazine-7-carboxamide]",IC95,≤ 20 µM
"CCOC(=O)c1cn2c(c1O)C(=O)N(Cc1ccc(F)cc1)CC2 [Example 3, Ethyl 2-(4-fluorobenzyl)-8-hydroxy-1-oxo-1,2,3,4-tetrahydropyrrolo[1,2-]pyrazine-7-carboxylate]",IC95,≤ 20 µM
"O=C(NC1CC1)c1cn2c(c1O)C(=O)N(Cc1ccc(F)cc1)CC2 [Example 7, 2-(4Fluorobenzyl)-8-hydroxy-N-cyclopropyl-1-oxo-1,2,3,4-tetrahydropyrrolo[1,2α]pyrazine-7-carboxamide]",IC95,≤ 20 µM
CCNC(=O)c1cn2c(c1O)C(=O)N(Cc1ccc(F)cc1)CC2 [Example 6],IC95,≤ 20 µM
"CNC(=O)c1cn2c(c1O)C(=O)N(Cc1ccc(Cl)cc1)CC2 [Example 16, 2-(4-Chlorobenzyl)-8-hydroxy-N-methyl-1-oxo-1,2,3,4-tetrahydropyrrolo[1,2-α]pyrazine-7-carboxamide]",IC95,≤ 20 µM
